Experiments:
[1] = tested on: EV-A71; assay: Viral load reduction assay in RD cells (RT-qPCR, TCID50, VP1 Western blot); format: cell-based, Human enterovirus A71; settings: MOI 0.1, 24 h
Protocol: (§1) Detection of cellular mRNA expression and viral load was performed as described previously ([24]). In brief, the infected or mock-infected cells were lysed and applied to total RNA extraction by using the MiniBEST Universal RNA Extraction Kit (TaKaRa, Code No.9767). Viral RNA in the supernatant was extracted with the MiniBEST Viral RNA Extraction Kit (TaKaRa, Code No.9766). Reverse transcription was performed using the PrimeScript RT reagent Kit (TaKaRa, Code No.PR037A) with an oligo (dT) primer. The resultant cDNAs were used for qPCR assay with the Light Cycler 480 SYBR Green I Master Mix (Roche) to measure the mRNA expression level of cellular genes or viral load in supernatants. The relative viral gene copy was determined by RT-qPCR, using GAPDH as an internal reference.
(§2) The viral titer in the indicated samples was determined by TCID50 assay as described previously ([25]). Briefly, serially diluted samples from 10^−1 to 10^−8 in DMEM were inoculated to RD cells, BGMK cells, or MRC-5 in 96‐well plates. The cells were then incubated for 2 to 3 days at 37°C. TCID50 was calculated by counting the wells with cytopathic effect in infected cells using the Reed–Muench method.
(§3) Western blot analysis was performed as described previously ([26]). In brief, the indicated cell samples were lysed in RIPA buffer supplemented with protease inhibitors (Thermo Fisher Scientific, 78430). The cell lysates were then separated in 10% SDS-PAGE and transferred to a 0.45-µm nitrocellulose membrane. After blocking, the membrane was incubated with an against VP1 antibody (GeneTex, GTX132339), VEGFR1 antibody (Abcam, ab32152), VEGFR2 antibody (Abcam, ab134191), phosphorylated VEGFR2 antibody (Tyr951) (CST 4991), VEGFR3 antibody (Beyotime, AF6918), Akt antibody (CST 4685), phosphorylated Akt antibody (CST 4060), or GAPDH antibody (GeneTex, GTX627408) diluted 1:5,000 in primary antibody dilution buffer overnight at 4°C, followed by corresponding secondary staining. The blots were visualized by western horseradish peroxidase substrate and imaged with Gel Doc XR+.
The results represent cell viability in the EV-A71-infected RD cells or 2D human intestinal organoids treated with DMSO (Negative control), Pirodavir (Positive control), or indicated VEGFR inhibitor (10 µM) relative to those in mock-infected RD cells or 2D human intestinal organoids. […] Significant inhibition of EV-A71 infection was found for both cell lysate (left) and supernatant (right) using RT-qPCR analysis. The results represent the viral load in the cells treated with indicated inhibitors relative to that in DMSO-treated cells. (C) Viral titer was also determined for inhibitor-treated samples in TCID50 assays. […] (D) Representative images of immunofluorescence assay for selected inhibitors using Rabbit anti‐VP1 antibody (green). Nuclei are counterstained with DAPI (blue). Scale bar, 50 µm.
Nuclei are counterstained with DAPI (blue). Scale bar, 50 µm.
Fig. S2. […] The results represent the viral load in the cells treated with indicated concentration of VEGFR inhibitors relative to that in DMSO-treated cells. Viral titer was also determined for samples treated with indicated concentrations of VEGFR inhibitors in TCID50 assays.
(§4) Fig. S7. Viral reduction in RD cells with Src inhibitor treatment. […] Significant inhibition of EV-A71 infection was found for both cell lysate (left) and supernatant (middle) using RT-qPCR analysis. The results represent the viral load in the cells treated with Dasatinib relative to that in DMSO-treated cells. Viral titer was also determined for inhibitor-treated samples in TCID50 assays (right). […] (C) VP1 protein levels were measured for samples treated with DMSO or Dasatinib using western blotting.
Fig. S8. Viral reduction in RD cells with Akt inhibitor treatment. […] Significant inhibition of EV-A71 infection was found for both cell lysate (left) and supernatant (middle) using RT-qPCR analysis. […]

[2] = tested on: CVA10; assay: Antiviral activity against CVA10 in RD cells (RT-qPCR, TCID50); format: cell-based, coxsackievirus A10; settings: 10 µM, 0.1 MOI, 24 h
Protocol: as §1, §2
(§5) The viral gene copy in the cell lysate is normalized with the transcript of GAPDH and presented. Viral titers were also detected by TCID50 assay. […] All experiments were independently repeated thrice.

[3] = tested on: HRV-A; assay: Antiviral activity against HRV-A in MRC-5 cells (RT-qPCR, TCID50); format: cell-based, human rhinovirus A; settings: 10 µM, 0.1 MOI, 24 h
Protocol: as §1, §2, §5

[4] = tested on: IL-6, IL-8, TNF-α mRNA expression; assay: EV-A71-induced pro-inflammatory cytokine mRNA expression in Huh7 and THP-1 cells; format: cell-based; settings: 10 µM, Huh7 (MOI 2) and THP-1 (MOI 5) cells, 12 hpi
[5] = tested on: Akt phosphorylation; assay: Western blot of phosphorylated Akt and total Akt in RD cells; format: cell-based
Protocol: as §3
as §4, with “S8.” for “S7.”, “Akt” for “Src”, “MK-2206” for “Dasatinib”, “The levels of VP1, phosphorylated Akt and total Akt” for “VP1”, “protein” for “protein levels”
Fig. S9. […] (A) RD cells were infected with EV-A71 at an MOI of 1, and cell lysates were collected at the indicated times. Western blotting assays were then performed to assess the levels of phosphorylated Akt and total Akt. (B)The plasmids pVEGFR2 or pEmpty vector were transfected into RD cells. At the indicated times post-transfection, cells were harvested to detect the expression levels of phosphorylated Akt and total Akt by western blotting. […] Western blotting assays were then performed to assess the levels of phosphorylated Akt and total Akt. […] At 1 hpi, cells were harvested to detect the expression levels of phosphorylated Akt and total Akt by western blotting. […]

Cc1ccc(Nc2nccc(N(C)c3ccc4c(C)n(C)nc4c3)n2)cc1S(N)(=O)=O [Pazopanib]
EV-A71 structural protein VP1 expression, dose dependence (Western blot) ([1]; indicated concentrations): dose-dependent inhibition | EV-A71 viral load and viral titer, dose dependence ([1]; indicated noncytotoxic concentrations): markedly reduced | viral load and viral titer of CVA10 in cell lysates and supernatants [2]: significantly reduced | HRV-A replication (viral loads in cell lysate and supernatant) [3]: slight but significant inhibition | EV-A71-induced pro-inflammatory cytokine activation [4]: significantly suppressed | Akt phosphorylation in mock-infected cells ([5]; 10 µM pretreatment): significantly attenuated Akt phosphorylation | EV-A71-stimulated Akt phosphorylation ([5]; 10 µM, MOI 1, 1 hpi): inhibited

Source: article PMC11542593, “Vascular endothelial growth factor receptor 2 as a potential host target for the inhibition of enterovirus replication” (Journal of Virology, 2024)
